# Measurements taken from patent publication US20260345803A1, “An Integrin Alpha10 Antibody Drug Conjugate” (Targinta AB, priority 2022, published 2026).
# Changes are numbered by the printed parent chain.
# B1: Th-Ab15 (antibody, V domains shown)
# VH: QVQLVQSGAEVKKPGASVKVSCKTSGYTFTEYYVIWVRQAPGQGLEWLGWIFPGSGRTYYSEKFRGRATITVDKSTSTAYMELSSLRSEDTAVYYCARDNYGSSGKFFAYWGQGTLVTVSS
# VL: DVVMTQSPLSLPVTLGQPASISCRSSQSLVHSNGNTYLHWYQQKPGQPPKLLIYKVSNRFSGVPDRFSGSGSGTDFTLKISRVEAEDVGVYYCSQSTHVPYTFGQGTKLEIK
# B2: Th-Ab9 (antibody, V domains shown)
# VH: B1 VH with V34I
# VL: B1 VL
# B3: Th-Ab12 (antibody, V domains shown)
# VH: B1 VH with V34I, A68V, V72A
# VL: B1 VL
# B4: Th-Ab14 (antibody, V domains shown)
# VH: B1 VH
# VL: B1 VL with Y92F
# B5: Th-Ab11 (antibody, V domains shown)
# VH: B1 VH with V34I, A68V, V72A
# VL: B1 VL with Y92F
# B6: Th-Ab12-ADC (antibody, V domains shown)
# VH: B1 VH with V34I, A68V, V72A
# VL: B1 VL
# modifications: ADC, conjugated to PNU-159682-type payload; constant regions SEQ21 (heavy) and SEQ20 (light)
# Experiments:
# C2C12alpha10 = assay: In vitro cytotoxicity (WST-1), C2C12alpha10; type: cell-based, mouse; conditions: monolayer, 5 days
# Experimental: (§1) • Aim: To evaluate the in vitro efficacy of Th-Ab12-ADC in different cell lines. Material and Methods: Cells were seeded either as monolayer (C2C12alpha10, C2C12alpha11 and A204) or as spheres (BT549, Hs578T, U3046MG, U3054MG and SJSA-1) and treated with the IgG1 isotype control Ctrl-ADC or Th-Ab12-ADC at different concentrations ([…]) for 5 days (C2C12alpha10, C2C12alpha11, A204 and SJSA-1) or 10 days (BT549, Hs578T, U3046MG and U3054MG). On the day of termination, the cells were incubated for 3-4 hours with WST-1, which measures the viable cells, and the plates were read at OD450 nm wavelength via SpectraMax. The dose response curves and IC50 values were generated in GraphPad Prism 9. The WST-1 assay is based on the cleavage of tetrazolium salt WST-1 for formazan by cellular mitochondrial dehydrogenases. […] The differences in IC50 values between control ADC and Th-Ab12-ADC supports a relatively large therapeutic window for each cell line (Table 3).
# C2C12alpha11 = assay: In vitro cytotoxicity (WST-1), C2C12alpha11; type: cell-based, mouse; conditions: monolayer, 5 days
# Experimental: as §1
# BT549 = assay: In vitro cytotoxicity (WST-1), BT549; type: cell-based; conditions: spheres, 10 days
# Experimental: as §1
# Hs578T = assay: In vitro cytotoxicity (WST-1), Hs578T; type: cell-based; conditions: spheres, 10 days
# Experimental: as §1
# U3046MG = assay: In vitro cytotoxicity (WST-1), U3046MG; type: cell-based, human; conditions: spheres, 10 days
# Experimental: as §1
# U3054MG = assay: In vitro cytotoxicity (WST-1), U3054MG; type: cell-based, human; conditions: spheres, 10 days
# Experimental: as §1
# A204 = assay: In vitro cytotoxicity (WST-1), A204; type: cell-based; conditions: monolayer, 5 days
# Experimental: as §1
# SJSA-1 = assay: In vitro cytotoxicity (WST-1), SJSA-1; type: cell-based; conditions: spheres, 5 days
# Experimental: as §1
# [1] = molecular target: T1, integrin alpha11 (C2C12alpha11 cells) (human, UniProt Q9UKX5); assay: FACS, C2C12alpha11 cells
# T1 chain: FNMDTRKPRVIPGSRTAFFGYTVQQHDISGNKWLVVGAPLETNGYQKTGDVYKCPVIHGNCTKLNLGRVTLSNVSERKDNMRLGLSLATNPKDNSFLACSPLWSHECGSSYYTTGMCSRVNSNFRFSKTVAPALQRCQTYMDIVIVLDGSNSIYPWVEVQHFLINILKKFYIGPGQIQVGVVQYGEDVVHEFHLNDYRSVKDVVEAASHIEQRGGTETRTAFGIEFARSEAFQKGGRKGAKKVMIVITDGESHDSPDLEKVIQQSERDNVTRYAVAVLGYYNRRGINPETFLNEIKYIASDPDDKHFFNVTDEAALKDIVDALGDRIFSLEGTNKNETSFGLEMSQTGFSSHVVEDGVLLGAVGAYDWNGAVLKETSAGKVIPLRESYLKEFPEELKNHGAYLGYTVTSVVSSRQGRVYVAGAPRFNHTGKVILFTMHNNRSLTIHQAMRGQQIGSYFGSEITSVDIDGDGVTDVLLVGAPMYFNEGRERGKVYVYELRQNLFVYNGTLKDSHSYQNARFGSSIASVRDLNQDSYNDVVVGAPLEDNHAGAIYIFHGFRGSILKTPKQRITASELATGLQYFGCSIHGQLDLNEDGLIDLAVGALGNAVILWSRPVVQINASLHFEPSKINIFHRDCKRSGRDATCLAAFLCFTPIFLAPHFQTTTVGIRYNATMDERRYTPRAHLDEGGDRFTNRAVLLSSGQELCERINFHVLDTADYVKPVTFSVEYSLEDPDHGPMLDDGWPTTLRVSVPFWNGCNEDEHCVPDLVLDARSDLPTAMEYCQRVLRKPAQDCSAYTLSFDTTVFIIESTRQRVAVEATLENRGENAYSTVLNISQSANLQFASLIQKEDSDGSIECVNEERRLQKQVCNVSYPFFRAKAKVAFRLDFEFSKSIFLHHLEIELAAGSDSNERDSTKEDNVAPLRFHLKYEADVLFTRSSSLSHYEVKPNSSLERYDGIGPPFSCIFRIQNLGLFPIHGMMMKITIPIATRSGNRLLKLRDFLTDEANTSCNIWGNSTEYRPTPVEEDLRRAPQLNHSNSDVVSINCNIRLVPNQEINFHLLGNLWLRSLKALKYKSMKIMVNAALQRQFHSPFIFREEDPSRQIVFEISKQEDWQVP
# [2] = molecular target: T2, integrin alpha10 (alpha10beta1, cell-expressed) (human, UniProt O75578); assay: FACS, upper end of range 0.9-2.69 nM over seven cell lines
# T2 chain: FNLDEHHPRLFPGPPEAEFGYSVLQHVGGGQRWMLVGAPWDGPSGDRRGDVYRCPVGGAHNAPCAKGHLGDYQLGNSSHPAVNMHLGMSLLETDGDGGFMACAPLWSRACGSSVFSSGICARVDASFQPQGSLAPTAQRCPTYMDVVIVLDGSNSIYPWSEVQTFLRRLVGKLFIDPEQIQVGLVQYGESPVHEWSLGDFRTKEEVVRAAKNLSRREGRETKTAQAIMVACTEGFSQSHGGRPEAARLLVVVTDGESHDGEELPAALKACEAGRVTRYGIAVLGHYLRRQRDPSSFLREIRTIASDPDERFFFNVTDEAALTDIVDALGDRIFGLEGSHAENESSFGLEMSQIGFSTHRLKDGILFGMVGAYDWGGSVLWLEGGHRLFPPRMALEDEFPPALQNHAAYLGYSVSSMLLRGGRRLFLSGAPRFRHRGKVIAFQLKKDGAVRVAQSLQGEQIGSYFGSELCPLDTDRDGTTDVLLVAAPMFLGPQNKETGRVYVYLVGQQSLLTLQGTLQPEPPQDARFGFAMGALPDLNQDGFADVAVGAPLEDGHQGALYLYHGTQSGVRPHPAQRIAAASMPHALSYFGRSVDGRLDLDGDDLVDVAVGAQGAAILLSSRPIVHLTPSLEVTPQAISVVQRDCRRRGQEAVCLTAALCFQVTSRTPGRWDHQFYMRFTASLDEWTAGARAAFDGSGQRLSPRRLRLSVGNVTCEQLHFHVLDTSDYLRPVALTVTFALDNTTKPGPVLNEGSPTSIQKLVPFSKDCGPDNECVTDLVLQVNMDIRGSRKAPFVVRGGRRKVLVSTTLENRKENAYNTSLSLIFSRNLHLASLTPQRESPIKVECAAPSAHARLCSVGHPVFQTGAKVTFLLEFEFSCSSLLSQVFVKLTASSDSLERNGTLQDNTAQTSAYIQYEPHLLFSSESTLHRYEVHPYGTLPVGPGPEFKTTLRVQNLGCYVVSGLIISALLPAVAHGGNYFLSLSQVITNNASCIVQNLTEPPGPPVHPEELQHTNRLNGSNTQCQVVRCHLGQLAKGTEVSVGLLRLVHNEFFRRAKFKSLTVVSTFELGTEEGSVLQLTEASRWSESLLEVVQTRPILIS
# [3] = molecular target: T2, integrin alpha10 (alpha10beta1, …); assay: FACS, lower end of range 0.9-2.69 nM over seven cell lines
molecule,measurement,setting,value
"COc1cccc2c1C(=O)c1c(O)c3c(c(O)c1C2=O)CC(O)(C(=O)CO)CC3OC1CC2C(OC3C(OC)OCCN23)C(C)O1 [PNU-159682, 3′-deamino-3″-4′-anhydro-[2″(S)-methoxy-3″(R)-hydroxy-4″-morpholinyl]doxorubicin]",IC50,C2C12alpha10,0.027 nM
same,IC50,C2C12alpha11,0.018 nM
same,IC50,BT549,1.4 nM
same,IC50,Hs578T,0.981 nM
same,IC50,U3046MG,0.077 nM
same,IC50,U3054MG,0.145 nM
same,IC50,A204,0.023 nM
same,IC50,SJSA-1,0.077 nM
B1,binding result,[1],no binding
B2,binding result,[1],no binding
B3,binding result,[1],no binding
B4,binding result,[1],no binding
B5,binding result,[1],no binding
B6,binding result,[1],no binding
same,EC50,[2],< 2.69 nM
same,EC50,[3],> 0.9 nM
